Data from article PMC12439338, “Designer amphiphilic helical peptide-decorated nanomicelles enable simultaneous inflammation control and triple-destruction of bacteria for treating bacterial pneumonia and sepsis” (Theranostics, 2025).
Where a SMILES comes first, the peptide text is derived from it.

Columns and labels:
[1] = system: TLR4 signaling (LPS-induced NF-κB/AP-1 and IRF activation) in THP-1 reporter cell-derived macrophages; experiment: NF-κB/AP-1 and IRF reporter assay, LPS (TLR4); type: cell-based, human
Protocol: (§1) Cell culture. THP-1 cells were cultured in the RPMI 1640 complete medium supplemented with 10% FBS, 2 mM L-glutamine, and 1 mM sodium pyruvate, in a cell incubator containing 5% CO2 at 37°C. Zeocin (200 μg/mL or 100 μg/mL) was added to the complete medium as the selection pressure for THP-1-XBlue or THP-1-ISG reporter cells. Cells were seeded into a 96-well plate (1×10^5 cells/well) or a 24-well plate (5×10^5 cells/well), and differentiated into macrophages with PMA (50 ng/mL) for 24 h. […] The culture medium supernatants and cell lysates were collected for further analysis.
(§2) NF-κB/AP-1 and IRF reporter assay. THP-1-XBlue and THP-1-ISG reporter cells were used to assess the activation of NF-κB/AP-1 and IRF, respectively. After treatments, the culture medium (20 μL per well) was collected and mixed with the Quanti-Blue solution (180 μL) in a clean 96-well plate, which was incubated for 1-2 h at 37°C until the solution color turned into dark purple. The solution absorption at 655 nm was acquired on a microplate reader (TECAN, Mannedorf, Zurich, Switzerland).

[2] = system: TLR2 signaling (Pam3CSK4-induced NF-κB/AP-1 activation) in THP-1 reporter cell-derived macrophages; experiment: NF-κB/AP-1 reporter assay, Pam3CSK4 (TLR2); type: cell-based, human; conditions: 2.5, 5 and 10 μM, Pam3CSK4 10 ng/mL, co-treatment, N = 3
Protocol: as §1, §2

LPS / TLR4 = system: LPS / TLR4; parameters: method as in 3 sources, ref 25 = [25]; PMID 34183393; doi:10.1073/pnas.2101721118; 25 Schromm AB Paulowski L Kaconis Y Kopp F Koistinen M Donoghue A Cathelicidin and PMB neutralize endotoxins by multifactorial mechanisms including LPS interaction and targeting of host cell membranes ||| ref 18, 19 = [18]; PMID 17237433; doi:10.4049/jimmunol.178.3.1829; 18 Di Nardo A Braff MH Taylor KR Na C Granstein RD McInturff JE Cathelicidin antimicrobial peptides block dendritic cell TLR4 activation and allergic contact sensitization J Immunol 2007 178 1829 34 1 || [19]; PMID 32582207; doi:10.3389/fimmu.2020.01137; 19 Scheenstra MR van Harten RM Veldhuizen EJA Haagsman HP Coorens M Cathelicidins modulate TLR-activation and inflammation Front Immunol 2020 11 1137 32582207 10.3389/fimmu.2020.01137 PMC7296178 ||| ref 44 = [44]; PMID 31364070; doi:10.1007/978-3-030-16373-0_4; 44 Li Z Velkov T Polymyxins: mode of action Adv Exp Med Biol 2019 1145 37 54 31364070 10.1007/978-3-030-16373-0_4; conditions: cited from earlier work
From the text: Bioactive peptides are functional biopolymers that can be de novo designed or derived from nature with immunoregulatory and antimicrobial activities. For example, naturally existed antimicrobial peptides (AMPs) are key players in the host-defense mechanism against the invasion of various pathogens including bacteria, fungi, viruses and parasites, [17], through the disruption of microorganism membranes. This working mechanism makes AMPs more advantageous over traditional antibiotics due to less chance for the development of drug resistance. In addition to elimination of microbes, some AMPs ... || Polymyxin B (PMB), a cationic cyclic peptide, is one of the last-line antibiotics to treat drug-resistant bacterial infection in the clinic. […] To assess the potency of our newly designed R18, we made the head-to-head comparison between R18 and polymyxin B on their TLR4 and TLR2 inhibitory activities.

[3] = cited from earlier work
From the text: (§3) The fast-increasing cases of sepsis or pneumonia caused by multidrug-resistant Gram-negative bacteria in the clinics have become a global health emergency, [30]. Currently, the peptide-based polymyxin B is the last line of antibiotics to fight multidrug-resistant Gram-negative bacteria. […] Th ...

[4] = system: Gram-positive bacterial infection; conditions: cited from earlier work
From the text: as §3

TLR4/MD-2 complex = system: TLR4/MD-2 complex; parameters: method as in PMID 35238667; conditions: cited from earlier work
[5] = system: bacteria-induced sepsis mouse models; conditions: cited from earlier work
From the text: The gene expressions of TLR2 and TLR4 in these patients were also correlated with that of the inflammatory cytokine IL1B (Figure S1C-F). These analyses together with reported literatures indeed confirmed the TLR2 and TLR4 up-regulation as a strong pathogenic factor in sepsis patients. Moreover, studies have shown that TLR4 knockout mice ...

[6] = right after preparation and overnight storage

polymyxin B
inhibition of LPS-induced NF-κB/AP-1 and IRF activation [1]: able to effectively inhibit LPS-induced activation
inhibition of Pam3CSK4-induced NF-κB/AP-1 activation [2]: had no effect on TLR2 inhibition
TLR4-mediated inflammation inhibition by antagonizing LPS (LPS / TLR4): capable of inhibiting TLR4-mediated inflammatory responses by antagonizing LPS
TLR4 antagonism by LPS neutralization (LPS / TLR4): TLR4 antagonist by neutralizing the bacterial product LPS
clinical toxicity [3]: has neurotoxicity and often causes some serious kidney problems
effectiveness against Gram-positive bacterial infection and inflammation [4]: not effective against Gram-positive bacterial infection and the associated inflammation

papiliocin
binding to TLR4/MD-2 (TLR4/MD-2 complex): directly bind to the TLR4/MD-2 complex in order to block LPS-TLR4 interactions

CCOC(=O)C1=CCCC[C@H]1S(=O)(=O)Nc1ccc(F)cc1Cl [TAK-242]
disease severity in sepsis mouse models [5]: successfully reduced the disease severity in bacteria-induced sepsis mouse models

LL-37: human host-defense peptide cathelicidin
modulation of TLR4-triggered responses via LPS binding (LPS / TLR4): capable of modulating TLR4-triggered inflammatory responses

CC(C)C[C@H](NC(=O)[C@H](CC(C)C)NC(=O)[C@H](CCCNC(=N)N)NC(=O)[C@H](Cc1c[nH]c2ccccc12)NC(=O)[C@H](CC(C)C)NC(=O)[C@H](CCCNC(=N)N)NC(=O)[C@H](CCCNC(=N)N)NC(=O)[C@H](Cc1c[nH]c2ccccc12)NC(=O)[C@H](CC(C)C)NC(=O)[C@H](CCCNC(=N)N)NC(=O)[C@H](CC(C)C)NC(=O)[C@H](Cc1c[nH]c2ccccc12)NC(=O)[C@H](CCCNC(=N)N)NC(=O)[C@H](CCCNC(=N)N)NC(=O)[C@H](CC(C)C)NC(=O)[C@H](Cc1c[nH]c2ccccc12)NC(=O)[C@@H](N)CCCNC(=N)N)C(=O)N[C@@H](CCCNC(=N)N)C(N)=O [R18] (H-RWLRRWLRLWRRLWRLLR-NH2)
stability and dispersibility in PBS [6]: tended to form milky colloidal suspensions and precipitate overnight
